Test results published in patent publication US20110105509A1 (Wyeth, LLC, priority 2009, published 2011).

Target: T1, CRTH2 (Homo sapiens, UniProt Q9Y5Y4)
T1 construct: expressed in transfected cells; host or cells: CHO cells
T1 sequence (Q9Y5Y4 1-395): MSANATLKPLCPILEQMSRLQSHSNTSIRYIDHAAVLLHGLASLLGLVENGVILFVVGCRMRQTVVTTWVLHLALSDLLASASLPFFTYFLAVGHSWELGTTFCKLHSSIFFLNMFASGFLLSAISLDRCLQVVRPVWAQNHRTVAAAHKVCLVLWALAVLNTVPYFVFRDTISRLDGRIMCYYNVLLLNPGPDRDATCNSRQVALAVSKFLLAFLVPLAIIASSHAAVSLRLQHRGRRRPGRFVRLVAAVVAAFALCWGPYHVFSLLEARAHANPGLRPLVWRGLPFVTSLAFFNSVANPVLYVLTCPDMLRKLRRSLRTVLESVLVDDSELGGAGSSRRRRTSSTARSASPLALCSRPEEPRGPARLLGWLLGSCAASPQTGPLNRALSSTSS
Assay: FRET based competitive immunoassay (cAMP) in CRTH2 expressing CHO cells
Format: cell-based
Settings: CRTH2 expressing CHO cells incubated with forskolin and PGD2; Eu3+ cryptate-labeled anti-cAMP and d2-labeled cAMP
Experimental: FRET Assay: To evaluate potency compounds were tested in a FRET based competitive immunoassay in which CRTH2 expressing CHO cells were incubated in the presence of forskolin and PGD2 along with Eu3+ cryptate-labeled anti-cAMP and d2-labeled cAMP.

IC50 [nM]	SMILES
65	Cc1c(Cc2ccc(=O)n(Cc3cc(F)cc(F)c3)c2)c2ccccc2n1CC(=O)O [Example 35, 2-(3-((1-(3,5-Difluorobenzyl)-6-oxo-1,6-dihydropyridin-3-yl)methyl)-2-methyl-1H-indol-1-yl)acetic acid]
2	Cc1c(Cc2ccc(=O)n(Cc3cc(F)cc(F)c3)c2)c2cc(F)ccc2n1CC(=O)O [Example 36, 2-(3-((1-(3,5-Difluorobenzyl)-6-oxo-1,6-dihydropyridin-3-yl)methyl)-5-fluoro-2-methyl-1H-indol-1-yl)acetic acid]
35	Cc1c(Cc2ccc(=O)n(Cc3c(F)cccc3F)c2)c2ccccc2n1CC(=O)O [Example 37, 2-(3-((1-(2,6-Difluorobenzyl)-6-oxo-1,6-dihydropyridin-3-yl)methyl)-2-methyl-1H-indol-1-yl)acetic acid]
7	Cc1c(Cc2ccc(=O)n(Cc3c(F)cccc3F)c2)c2cc(F)ccc2n1CC(=O)O [Example 38, 2-(3-((1-(2,6-Difluorobenzyl)-6-oxo-1,6-dihydropyridin-3-yl)methyl)-5-fluoro-2-methyl-1H-indol-1-yl)acetic acid]
4	Cc1c(Cc2ccc(=O)n(Cc3cccc(F)c3)c2)c2cc(F)ccc2n1CC(=O)O [Example 39, 2-(5-Fluoro-3-((1-(3-fluorobenzyl)-6-oxo-1,6-dihydropyridin-3-yl)methyl)-2-methyl-1H-indol-1-yl)acetic acid]
30	Cc1c(Cc2ccc(=O)n(Cc3ccc(F)cc3)c2)c2ccccc2n1CC(=O)O [Example 40, 2-(3-((1-(4-Fluorobenzyl)-6-oxo-1,6-dihydropyridin-3-yl)methyl)-2-methyl-1H-indol-1-yl)acetic acid]
3	Cc1c(Cc2ccc(=O)n(Cc3ccc(F)cc3)c2)c2cc(F)ccc2n1CC(=O)O [Example 41, 2-(5-Fluoro-3-((1-(4-fluorobenzyl)-6-oxo-1,6-dihydropyridin-3-yl)methyl)-2-methyl-1H-indol-1-yl)acetic acid]
7	Cc1c(Cc2ccc(=O)n(Cc3ccc(F)cc3F)c2)c2cc(Cl)ccc2n1CC(=O)O [Example 42, 2-(5-Chloro-3-((1-(2,4-difluorobenzyl)-6-oxo-1,6-dihydropyridin-3-yl)-methyl)-2-methyl-1H-indol-1-yl)acetic acid]
9	Cc1c(Cc2ccc(=O)n(Cc3cccc(F)c3F)c2)c2cc(Cl)ccc2n1CC(=O)O [Example 43, 2-(5-Chloro-3-((1-(2,3-difluorobenzyl)-6-oxo-1,6-dihydropyridin-3-yl)-methyl)-2-methyl-1H-indol-1-yl)acetic acid]
5	Cc1c(Cc2ccc(=O)n(Cc3cccc(F)c3)c2)c2cc(Cl)ccc2n1CC(=O)O [Example 45, 2-(5-Chloro-3-((1-(3-fluorobenzyl)-6-oxo-1,6-dihydropyridin-3-yl)methyl)-2-methyl-1H-indol-1-yl)acetic acid]
55	Cc1c(Cc2ccc(=O)n(CC(F)(F)F)c2)c2cc(F)ccc2n1CC(=O)O [Example 46]
> 2000	Cc1c(-c2nn(Cc3ccccc3)c(=O)c3ccccc23)c2ccccc2n1CC(N)=O [Example 47, 2-(3-(3-Benzyl-4-oxo-3,4-dihydrophthalazin-1-yl)-2-methyl-1H-indol-1-yl)-acetamide]
> 2000	Cc1c(-c2nn(Cc3ccccc3)c(=O)c3ccccc23)c2ccccc2n1CC(=O)N(C)C [Example 48, 2-(3-(3-Benzyl-4-oxo-3,4-dihydrophthalazin-1-yl)-2-methyl-1H-indol-1-yl)-N,N-dimethylacetamide]
> 2000	Cc1c(-c2nn(Cc3ccccc3)c(=O)c3ccccc23)c2ccccc2n1CC(=O)N1CCCC1 [Example 49, 2-Benzyl-4-(2-methyl-1-(2-oxo-2-(pyrrolidin-1-yl)ethyl)-1H-indol-3-yl)phthalazin-1(2H)-one]
> 1500	Cc1c(-c2nn(Cc3ccccc3)c(=O)c3ccccc23)c2ccccc2n1CC(=O)NS(C)(=O)=O [Example 50, 2-(3-(3-Benzyl-4-oxo-3,4-dihydrophthalazin-1-yl)-2-methyl-1H-indol-1-yl)-N-(methylsulfonyl)acetamide]
